According to the supplement of paper PMC11061612:

Columns and labels:
SN-38 = compound: CCc1c2c(nc3ccc(O)cc13)-c1cc3c(c(=O)n1C2)COC(=O)[C@]3(O)CC [SN-38]; conditions: max 0.3 µM
Procedure, shortened: (§1)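 Following 24 hours at 37°C and 5% CO2, cancer cell lines in 1536-well plates with 7.5 μl DMEM/F12 or RPMI and 10% FBS were dosed for 72 hours, final DMSO typically being 0.2%. CellTiter-Glo 2.0 luminescence, scaled between blank-well and DMSO-well means, gave the viability readout. Dose responses were fitted to a two-parameter logistic curve with a non-linear mixed effects model, and the single-agent IC50 was derived from this fit.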

AZD1390 = compound: CC(C)n1c(=O)n(C)c2cnc3cc(F)c(-c4ccc(OCCCN5CCCCC5)nc4)cc3c21 [AZD1390]; conditions: max 0.3 µM
Procedure, shortened: as §1

Taselisib = compound: Cc1nc(-c2cn3c(n2)-c2ccc(-c4cnn(C(C)(C)C(N)=O)c4)cc2OCC3)n(C(C)C)n1 [Taselisib]; conditions: max 10 µM
Procedure, shortened: as §1

AZD0156 = compound: CN(C)CCCOc1ccc(-c2ccc3ncc4c(c3c2)n(C2CCOCC2)c(=O)n4C)cn1 [AZD0156]; conditions: max 3 µM
Procedure, shortened: as §1

Dasatinib = compound: CC1=C(C(=CC=C1)Cl)NC(=O)C2=CN=C(S2)NC3=CC(=NC(=N3)C)N4CCN(CC4)CCO [Dasatinib]; conditions: max 2 µM
Procedure, shortened: as §1

AZD8186 = compound: C[C@@H](Nc1cc(F)cc(F)c1)c1cc(C(=O)N(C)C)cc2c(=O)cc(N3CCOCC3)oc12 [AZD8186]; conditions: max 3 µM
Procedure, shortened: as §1

AZD5153 = compound: COc1nnc2ccc(N3CCC(c4ccc(OCCN5CCN(C)C(=O)[C@H]5C)cc4)CC3)nn12 [AZD5153]; conditions: max 1 µM
Procedure, shortened: as §1

Prexasertib = compound: COc1cccc(OCCCN)c1-c1cc(Nc2cnc(C#N)cn2)n[nH]1 [Prexasertib]; conditions: max 1 µM
Procedure, shortened: as §1

Alisertib = compound: COc1cc(Nc2ncc3c(n2)-c2ccc(Cl)cc2C(c2c(F)cccc2OC)=NC3)ccc1C(=O)O [Alisertib]; conditions: max 10 µM
Procedure, shortened: as §1

AZD5991 = compound: Cc1c2c(nn1C)CSCc1cc(n(C)n1)CSc1cc(c3ccccc3c1)OCCCc1c(C(=O)O)n(C)c3c-2c(Cl)ccc13 [AZD5991]; conditions: max 1 µM
Procedure, shortened: as §1

Lapatinib = compound: CS(=O)(=O)CCNCc1ccc(-c2ccc3ncnc(Nc4ccc(OCc5cccc(F)c5)c(Cl)c4)c3c2)o1 [Lapatinib]; conditions: max 10 µM
Procedure, shortened: as §1

SG3199 = compound: CC1=CN2[C@@H](C1)C=NC3=CC(=C(C=C3C2=O)OC)OCCCCCOC4=C(C=C5C(=C4)N=C[C@@H]6CC(=CN6C5=O)C)OC [SG3199]; conditions: max 0.001 µM
Procedure, shortened: as §1

AZD1775 = compound: C=CCn1c(=O)c2cnc(Nc3ccc(N4CCN(C)CC4)cc3)nc2n1-c1cccc(C(C)(C)O)n1 [AZD1775]; conditions: max 3 µM
Procedure, shortened: as §1

Palbociclib = compound: CC(=O)c1c(C)c2cnc(Nc3ccc(N4CCNCC4)cn3)nc2n(C2CCCC2)c1=O [Palbociclib]; conditions: max 10 µM
Procedure, shortened: as §1

Crizotinib = compound: C[C@@H](Oc1cc(-c2cnn(C3CCNCC3)c2)cnc1N)c1c(Cl)ccc(F)c1Cl [Crizotinib]; conditions: max 10 µM
Procedure, shortened: as §1

Gefitinib = compound: COc1cc2ncnc(Nc3ccc(F)c(Cl)c3)c2cc1OCCCN1CCOCC1 [Gefitinib]; conditions: max 10 µM
Procedure, shortened: as §1

Trametinib = compound: CC(=O)Nc1cccc(-n2c(=O)n(C3CC3)c(=O)c3c(Nc4ccc(I)cc4F)n(C)c(=O)c(C)c32)c1 [Trametinib]; conditions: max 1 µM
Procedure, shortened: as §1

Savolitinib = compound: C[C@@H](c1ccc2nccn2c1)n1nnc2ncc(-c3cnn(C)c3)nc21 [Savolitinib]; conditions: max 1 µM
Procedure, shortened: as §1

AZD4320 = compound: CN(CC[C@H](CSC1=CC=CC=C1)NC2=C(C=C(C=C2)S(=O)(=O)NC(=O)C3=CC=C(C=C3)N4CCC(CC4)[C@H](C5=CC=CC=C5C6=CC=C(C=C6)Cl)O)S(=O)(=O)C(F)(F)F)CCO [AZD4320]; conditions: max 1 µM
Procedure, shortened: as §1

AZD7648 = compound: Cc1cc2ncnn2cc1Nc1ncc2c(n1)n(C1CCOCC1)c(=O)n2C [AZD7648]; conditions: max 10 µM
Procedure, shortened: as §1

AZD2811 = compound: CCN(CCO)CCCOc1ccc2c(Nc3cc(CC(=O)Nc4cccc(F)c4)[nH]n3)ncnc2c1 [AZD2811]; conditions: max 1 µM
Procedure, shortened: as §1

Venetoclax = compound: CC1(C)CCC(CN2CCN(c3ccc(C(=O)NS(=O)(=O)c4ccc(NCC5CCOCC5)c([N+](=O)[O-])c4)c(Oc4cnc5[nH]ccc5c4)c3)CC2)=C(c2ccc(Cl)cc2)C1 [Venetoclax]; conditions: max 1 µM
Procedure, shortened: as §1

MK-2206 = compound: NC1(c2ccc(-c3nc4ccn5c(=O)[nH]nc5c4cc3-c3ccccc3)cc2)CCC1 [MK-2206]; conditions: max 10 µM
Procedure, shortened: as §1

AZD6738 = compound: C[C@@H]1COCCN1C2=NC(=NC(=C2)C3(CC3)[S@](=N)(=O)C)C4=C5C=CNC5=NC=C4 [AZD6738]; conditions: max 10 µM
Procedure, shortened: as §1

Doxorubicin = compound: COc1cccc2c1C(=O)c1c(O)c3c(c(O)c1C2=O)C[C@@](O)(C(=O)CO)C[C@@H]3O[C@H]1C[C@H](N)[C@H](O)[C@H](C)O1 [Doxorubicin]; conditions: max 1 µM
Procedure, shortened: as §1

Capivasertib = compound: C1CN(CCC1(C(=O)N[C@@H](CCO)C2=CC=C(C=C2)Cl)N)C3=NC=NC4=C3C=CN4 [Capivasertib]; conditions: max 10 µM
Procedure, shortened: as §1

Olaparib = compound: O=C(c1cc(Cc2n[nH]c(=O)c3ccccc23)ccc1F)N1CCN(C(=O)C2CC2)CC1 [Olaparib]; conditions: max 10 µM
Procedure, shortened: as §1

Selumetinib = compound: Cn1cnc2c(F)c(Nc3ccc(Br)cc3Cl)c(C(=O)NOCCO)cc21 [Selumetinib]; conditions: max 10 µM
Procedure, shortened: as §1

| Cell Line | IC50, cell viability 72 h (SN-38) | IC50, cell viability 72 h (AZD1390) | IC50, cell viability 72 h (Taselisib) | IC50, cell viability 72 h (AZD0156) | IC50, cell viability 72 h (Dasatinib) | IC50, cell viability 72 h (AZD8186) | IC50, cell viability 72 h (AZD5153) | IC50, cell viability 72 h (Prexasertib) | IC50, cell viability 72 h (Alisertib) | IC50, cell viability 72 h (AZD5991) | IC50, cell viability 72 h (Lapatinib) | IC50, cell viability 72 h (SG3199) | IC50, cell viability 72 h (AZD1775) | IC50, cell viability 72 h (Palbociclib) | IC50, cell viability 72 h (Crizotinib) | IC50, cell viability 72 h (Gefitinib) | IC50, cell viability 72 h (Trametinib) | IC50, cell viability 72 h (Savolitinib) | IC50, cell viability 72 h (AZD4320) | IC50, cell viability 72 h (AZD7648) | IC50, cell viability 72 h (AZD2811) | IC50, cell viability 72 h (Venetoclax) | IC50, cell viability 72 h (MK-2206) | IC50, cell viability 72 h (AZD6738) | IC50, cell viability 72 h (Doxorubicin) | IC50, cell viability 72 h (Capivasertib) | IC50, cell viability 72 h (Olaparib) | IC50, cell viability 72 h (Selumetinib) |
| --- | --- | --- | --- | --- | --- | --- | --- | --- | --- | --- | --- | --- | --- | --- | --- | --- | --- | --- | --- | --- | --- | --- | --- | --- | --- | --- | --- | --- |
| HGC-27 (Gastric Carcinoma) | 14.6 nM | > 300 nM | 61.1 nM | > 3000 nM | 349 nM | 2380 nM | 54.8 nM | 76.8 nM | 164 nM | > 1000 nM | 4940 nM | > 1 nM | 2240 nM | 3210 nM | 3250 nM | > 10000 nM | > 1000 nM | > 1000 nM | > 1000 nM | > 10000 nM | 94.1 nM | > 1000 nM | 501 nM | 2840 nM | 146 nM | 346 nM | > 10000 nM | > 10000 nM |
| HSC-4 (Oral Cavity Carcinoma) | 11.2 nM | > 300 nM | > 10000 nM | > 3000 nM | > 2000 nM | > 3000 nM | > 1000 nM | 205 nM | > 10000 nM | > 1000 nM | > 10000 nM | > 1 nM | > 3000 nM | > 10000 nM | > 10000 nM | > 10000 nM | > 1000 nM | > 1000 nM | > 1000 nM | > 10000 nM | > 1000 nM | > 1000 nM | > 10000 nM | 7280 nM | > 1000 nM | > 10000 nM | > 10000 nM | > 10000 nM |
| NUGC-3 (Gastric Carcinoma) | 5.05 nM | > 300 nM | 3750 nM | > 3000 nM | > 2000 nM | > 3000 nM | > 1000 nM | 193 nM | > 10000 nM | > 1000 nM | 5310 nM | > 1 nM | 729 nM | > 10000 nM | > 10000 nM | > 10000 nM | 592 nM | > 1000 nM | > 1000 nM | > 10000 nM | > 1000 nM | > 1000 nM | > 10000 nM | 6490 nM | 128 nM | > 10000 nM | > 10000 nM | > 10000 nM |
| OSC-20 (Oral Cavity Carcinoma) | 40.4 nM | > 300 nM | 9680 nM | > 3000 nM | > 2000 nM | > 3000 nM | > 1000 nM | 458 nM | > 10000 nM | > 1000 nM | > 10000 nM | > 1 nM | 1220 nM | > 10000 nM | > 10000 nM | > 10000 nM | > 1000 nM | > 1000 nM | > 1000 nM | > 10000 nM | > 1000 nM | > 1000 nM |  | > 10000 nM | > 1000 nM | > 10000 nM | > 10000 nM | > 10000 nM |
| OVCAR-4 (Ovarian Carcinoma) | > 300 nM | > 300 nM | > 10000 nM | > 3000 nM | > 2000 nM | > 3000 nM | > 1000 nM | 57.4 nM | > 10000 nM | > 1000 nM | > 10000 nM | > 1 nM | > 3000 nM | > 10000 nM | > 10000 nM | > 10000 nM | > 1000 nM | > 1000 nM | > 1000 nM | > 10000 nM | > 1000 nM | > 1000 nM |  | 6930 nM | > 1000 nM | > 10000 nM | > 10000 nM | > 10000 nM |
